# In patent US20260085082A1, “KDM1A INHIBITORS FOR THE TREATMENT OF DISEASE” (Imago Biosciences, Inc., priority 2022, published 2026):
# Columns and labels:
# LSD1 = LSD1 (Homo sapiens, UniProt O60341); test: LSD1 10-dose IC50 fluorescence coupling enzyme assay (HRP/Amplex Red, resorufin); format: biochemical; settings: 10 M histone H3(1-21)K4me2 peptide substrate; 3-fold serial dilution in duplicate starting at 100 μM
# Description: Compounds were tested in a 10-dose IC50 mode fluorescence coupling enzyme assay with 3-fold serial dilution in duplicate starting at 100 μM. The production of FAD-dependent H2O2 as a result of demethylase activity of LSD1 on […] histone H3(1-21)K4me2 peptide substrate was measured by coupling with HRP and Amplex Red to yield resorufin (fluorescence measured at Ex/Em=535/590 nm on EnVision, Perkin Elmer).
# MV4;11 cells = test: Cell Titer-Glo Luminescent Cell Viability Assay, cell growth inhibition against MV4;11 cells; format: cell-based; settings: Homo sapiens, MV4-11, 120 h, MV4;11 cells, Day 5, 10-point dose curve 0 to 50 μM; read-out: Cell Titer Glo IC50 (5 d)
# Procedure, shortened: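 MV4;11 cells seeded at 3750/well, exposed to a 10-point 4-fold dilution series (0–50 μM); on Day 5 cells were split into fresh compound and media and grown to Day 10. Viability by CellTiter-Glo ATP luminescence at Day 5 and Day 10; IC50 from dose curves.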
IC50 (LSD1),IC50 (MV4;11 cells),Compound
> 10000 nM,> 10000 nM,"COc1ccc(-n2cc(C(=O)N3CCCC(N)C3)c(-c3ccc(C#N)cc3)n2)cc1 (stereo not drawn) [Example 87, 4-(4-(3-aminopiperidine-1-carbonyl)-1-(4-methoxyphenyl)-1H-pyrazol-3-yl)benzonitrile]"
> 10000 nM,> 10000 nM,"COc1ccc(-n2ncc(C(=O)N3CCCC(N)C3)c2-c2ccc(C#N)cc2)cc1 (stereo not drawn) [Example 88, 4-(4-(3-aminopiperidine-1-carbonyl)-1-(4-methoxyphenyl)-1H-pyrazol-5-yl)benzonitrile]"
< 500 nM,1000 to 10000 nM,"COc1ccc(-n2nc(NC(=O)[C@@H]3CCC[C@@H](N)C3)cc2-c2ccc(C#N)c(F)c2)cc1 [Example 89, (1R,3R)-3-amino-N-(5-(4-cyano-3-fluorophenyl)-1-(4-methoxyphenyl)-1H-pyrazol-3-yl)cyclohexane-1-carboxamide 2,2,2-trifluoroacetate]"
< 500 nM,1000 to 10000 nM,"COc1ccc(-n2nc(NC(=O)[C@H]3CCC[C@H](N)C3)cc2-c2ccc(C#N)c(F)c2)cc1 [Example 90, (1S,3S)-3-amino-N-(5-(4-cyano-3-fluorophenyl)-1-(4-methoxyphenyl)-1H-pyrazol-3-yl)cyclohexane-1-carboxamide 2,2,2-trifluoroacetate]"
1000 to 10000 nM,1000 to 10000 nM,"COc1ccc(-n2nc(NC(=O)[C@H]3CC[C@H](N)CC3)cc2-c2ccc(C#N)c(F)c2)cc1 [Example 91, (1R,4R)-4-Amino-N-(5-(4-cyano-3-fluorophenyl)-1-(4-methoxyphenyl)-1H-pyrazol-3-yl)cyclohexane-1-carboxamide 2,2,2-trifluoroacetate]"
500 to 1000 nM,1000 to 10000 nM,"COc1ccc(-n2nc(NC(=O)C3CCNCC3)cc2-c2ccc(C#N)c(F)c2)cc1 [Example 92, N-(5-(4-cyano-3-fluorophenyl)-1-(4-methoxyphenyl)-1H-pyrazol-3-yl)piperidine-4-carboxamide 2,2,2-trifluoroacetate]"
< 500 nM,1000 to 10000 nM,"COc1ccc(-n2nc(NC(=O)C3CCNC3)cc2-c2ccc(C#N)c(F)c2)cc1 (stereo not drawn) [Example 93, N-(5-(4-cyano-3-fluorophenyl)-1-(4-methoxyphenyl)-1H-pyrazol-3-yl)pyrrolidine-3-carboxamide 2,2,2-trifluoroacetate]"
< 500 nM,1000 to 10000 nM,"COc1ccc(-n2nc(NC(=O)[C@@H]3CCNC3)cc2-c2ccc(C#N)c(F)c2)cc1 [Example 94, (R)-N-(5-(4-cyano-3-fluorophenyl)-1-(4-methoxyphenyl)-1H-pyrazol-3-yl)pyrrolidine-3-carboxamide 2,2,2-trifluoroacetate]"
< 500 nM,1000 to 10000 nM,"COc1ccc(-n2nc(NC(=O)[C@H]3CCNC3)cc2-c2ccc(C#N)c(F)c2)cc1 [Example 95, (S)-N-(5-(4-cyano-3-fluorophenyl)-1-(4-methoxyphenyl)-1H-pyrazol-3-yl)pyrrolidine-3-carboxamide 2,2,2-trifluoroacetate]"
